Earlier results, collected in patent publication EP4585059A1, “EFFERVESCENT POUCHED PRODUCT” (Nicoventures Trading Limited, priority 2024, dated 2025).

Key:
[1] = water / aqueous environment (e.g., saliva)
[2] = Values obtained from PubChem or calculated

| Compound | solubility in water [1] | log(P)* [2] |
| --- | --- | --- |
| C=C(C)[C@@H]1CCC(C)=C[C@H]1c1c(O)cc(CCCCC)cc1O [CBD, cannabidiol] | insoluble | – |
| CC(C)[C@@H]1CC[C@@H](C)C[C@H]1OC(=O)CCC(=O)O [monomenthyl succinate] | – | 3 |
| ethyl benzoic acid | – | 2.9 |
| isopropyl benzoic acid | – | 3.5 |

Continued, in another order:

| solubility in water [1] | Compound | log(P)* [2] |
| --- | --- | --- |
| water-soluble | CC(/C=C/C=C(C)/C=C/C(=O)O)=C\C=C\C=C(C)\C=C\C=C(C)\C=C\C(=O)O (stereo in doubt) [norbixin, (2E,4E,6E,8E,10E,12E,14E,16E,18E)-4,8,13,17-tetramethylicosa-2,4,6,8,10,12,14,16,18-nonaenedioic acid] | – |
| insoluble in water | COC(=O)/C=C/C(C)=C\C=C\C(C)=C\C=C\C=C(C)\C=C\C=C(C)\C=C\C(=O)O [bixin, (2E,4E,6E,8E,10E,12E,14E,16Z,18E)-20-methoxy-4,8,13,17-tetramethyl-20-oxoicosa-2,4,6,8,10,12,14,16,18-nonaenoic acid] | – |
